Reference: patent publication EP0696280B1, “SUBSTITUTED PYRROLIDIN-3-YL-ALKYL-PIPERIDINES USEFUL AS TACHYKININ ANTAGONISTS” (MERRELL PHARMACEUTICALS INC., priority 1993, dated 1994)
Where a name gives a salt, the structure may show the parent alone. Read-outs that look alike come from different tables or passages of the source.

What was measured:
NK2 receptor = molecular target: T1, NK2 receptor (Bos taurus, UniProt P05363); assay: Antagonism of NK2 receptor mediated (NKA-induced) phosphatidylinositol turnover in SKLKB82#3 cells; format: cell-based
T1 construct: expressed in transfected cells; host or cells: SKLKB82#3 cells
T1 sequence (P05363 1-384): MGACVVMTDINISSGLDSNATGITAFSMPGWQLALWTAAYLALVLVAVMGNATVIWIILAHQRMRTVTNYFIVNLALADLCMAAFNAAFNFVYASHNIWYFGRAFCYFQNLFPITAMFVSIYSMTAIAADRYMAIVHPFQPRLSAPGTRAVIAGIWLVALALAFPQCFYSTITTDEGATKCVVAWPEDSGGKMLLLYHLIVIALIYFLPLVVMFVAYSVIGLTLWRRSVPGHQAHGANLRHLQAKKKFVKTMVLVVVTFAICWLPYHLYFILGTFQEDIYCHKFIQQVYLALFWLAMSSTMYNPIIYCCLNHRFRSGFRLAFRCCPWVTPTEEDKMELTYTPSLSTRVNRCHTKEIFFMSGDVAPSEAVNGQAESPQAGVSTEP
Protocol: Tachykinin-mediated inositol phosphate accumulation was measured in UCll or SKLKB82#3 cells in the presence and absence of NK1 or NK2 receptor antagonists, respectively. Tissues were incubated in Krebs-Henseleit buffer at 37°C with 95% O2-5% CO2 gassing. Tissues were then incubated with fresh buffer containing 100 µCi of myo-[2-^3H(N)] inositol at 37°C for 60 min with gentle gassing. After washing twice at room temperature in 5 ml buffer containing 10 mM LiCl, tissues were incubated for 30 min at room temperature with a buffer change at 15 min. Buffer was removed and Krebs-Henseleit buffer (containing 40 µg/ml bacitracin, 4 µg/ml each of leupeptin and chymostatin, 0.1% bovine serum albumin and 10 mM each of thiorphan and LiCl) added. After 15 min, SP was added to UCll cells or NKA to SKLKB82#3 cells at various concentrations to start the reaction. After incubation for 60 min at room temperature the reaction was terminated by addition of 930 µl chloroform: methanol (1:2 by volume) to each tube, followed by 310 µl chloroform and 310 µl doubly distilled water. Samples were vortexed, centrifuged, and 0.9 ml of the aqueous (top) phase removed and added to 2 ml ddH2O. The mixture was vortexed and loaded onto a 50% Bio-Rad AG 1-X8 (formate form, 100-200 mesh) exchange column (Bio-Rad Laboratories, Hercules, CA). The columns were washed, in order, with: 1) 10 ml doubly distilled water, 2) 5 ml of 5 mM disodium tetraborate/60 mM sodium formate, and 3) 5 ml of 1 M ammonium formate/0.1 M formic acid. The third elution was collected and 1 ml counted in 7 ml scintillation fluid. A 50 µl aliquot of the organic (bottom) phase was removed, dried in a scintillation vial and counted in 7 ml scintillation fluid.
The ratio of DPM in the aqueous phase aliquot (total inositol phosphates) to the DPM in the 50 µl organic phase aliquot (total [^3H]inositol incorporated) was calculated for each sample. Data are expressed as a percent of agonist-induced accumulation of [^3H]-inositol phosphates over basal levels. The ratios in the presence of test compound and/or standards were compared to the ratios for control samples (i.e. no stimulating agonist). Dose-response graphs were constructed and the abilities of the test compounds to inhibit tachykinin-induced phosphatidylinositol turnover determined with the aid of a computer program. […] Data is expressed as percent stimulation of total inositol phosphate accumulation over basal levels and normalized to the maximum response produced by SP. […] Schild analysis is performed using dose response curves (such as those presented in Figures 1a and 1b) to obtain a value indicative of the strength of a competitive antagonist and is expressed as the pA2, which is the negative logarithm of the molar concentration of antagonist which reduces the effect of a dose of agonist to one-half of that expected at the dose of agonist. […]
Values are mean (95% confidence limits) derived from Schild analysis of 2-3 experiments per compound per receptor.

[1] = tested on: NKA-induced respiratory effects; assay: Antagonism of NKA aerosol induced respiratory effects in conscious guinea pigs (whole body plethysmography); format: in vivo, guinea pig; settings: 20 min prior to NKA aerosol (0.05%); for DYSPNEA ONSET: mean and SEM
Protocol: In vivo experiments were performed using male Duncan Hartley guinea pigs (250-350g). Changes in conscious breathing patterns were monitored in four animals simultaneously using modified whole body plethysmography consisting of four small plexiglass boxes each connected to a reference box via Validyne DP 45-16 differential pressure transducers. The 4 boxes were equipped with an air supply line (also used for aerosol delivery) and an exhaust air line. Supply and exhaust lines were of the same length and narrow bore and arose from a common supply chamber and vented to a common exhaust chamber. This system was used to ensure that fluctuations in supply air and atmospheric pressure would remain in phase and be eliminated from the net signal by the differential pressure transducers. The analog pressure signals were digitalized via a Data Translation DT2821 A to D board. Data were collected at a rate of 100 samples/second/animal. Each cycle of pressure change was analyzed using the following parameters: rising and falling slope determined between minimum and maximum pressures, the ratio of rising over falling slope, and the magnitude of the change between initial trough pressure and peak cycle pressure. Using these values (and observing the animals) the pressure cycles were characterized into normal breaths, forced exhalations (apparent by abdominal heaving), significant respiratory events (SREs; usually coughs, less often sneezes or gasps which were characterized by transient, extremely large pressure increases which were distinguishable from noise) and movement/noise with a PCAT 286 running a System V UNIX operating system. Dyspnea was defined as a significant, sustained increase in plethysmograph pressure which was associated with an observable shift to labored breathing in the animal.
During the course of a typical experiment in which airway responsiveness to various bronchoconstricting agents was examined, aerosols were delivered for 19 min (0.33 ml/min) using a DeVilbiss Ultraneb 99 ultrasonic nebulizer and animals monitored during this time. Prior to nebulization, 1 min of resting breathing was collected to establish a baseline pressure. […] The vehicle for nebulization of all bronchoconstrictive agents was phosphate buffered saline (pH 7.4) which elicited no respiratory effects itself. Putative tachykinin antagonists were administered either (i.v.) 20 min prior to onset of aerosol exposure or orally 1 hour prior to onset (to guinea pigs after an overnight fast).
Table 6 illustrates the effects of the compounds of Example 3; Example 20A; and Example 5A on respiratory effects induced by NKA aerosol. […] These effects were dose dependent i.e. the higher the dose of compound, the greater attenuation of NKA-mediated effects. […]
Compounds were administered 20 min prior to initiation of NKA aerosol (0.05%). Values for each treatment represent the mean and SEM of data from 5-37 animals per dose.

[2] = Schild analysis, NKA in SKLKB82#3 cells, mean (95% confidence limits), 2-3 experiments

COc1cccc(OC)c1C(=O)N1CCC(CCN2CCC(C(N)=O)(c3ccccc3)CC2)(c2ccc(Cl)c(Cl)c2)C1 (racemic) [Example 5A, 1-[2-[3-(3,4-dichloro-phenyl-3-yl)-1-(2,6-dimethoxy-benzoyl)-pyrrolidin-3-yl]-ethyl]-4-phenyl-piperidine-4-carboxylic acid amide hydrochloride]
NK-2 RECEPTOR -SLOPE (NK2 receptor; [2]): 1.11 (0.99-1.23)
Kb (NK2 receptor; Schild analysis, NKA in SKLKB82#3 cells, mean (95% confidence limits), 2-3 experiments, read-out: NK-2 RECEPTOR pA2 (converted)): 44.7 nM
DYSPNEA INCIDENCE ([1]; 5 mg/kg): 60% (3/5)
DYSPNEA ONSET ([1]; 5 mg/kg): 654 ± 37 s
DYSPNEA INCIDENCE ([1]; 10 mg/kg): 54% (7/13)
DYSPNEA ONSET ([1]; 10 mg/kg): 608 ± 65 s

COc1cc(C(=O)N2CCC(CCN3CCC(C(N)=O)(c4ccccc4)CC3)(c3ccc(Cl)c(Cl)c3)C2)cc(OC)c1OC (racemic) [Example 3A, 1-[2-[3-(3,4-dichloro-phenyl-3-yl)-1-(3,4,5-trimethoxy-benzoyl)-pyrrolidin-3-yl]-ethyl] -4-phenyl-piperidine-4-carboxylic acid amide hydrochloride]
Kb (NK2 receptor): 1.78 nM
NK-2 RECEPTOR -SLOPE (NK2 receptor; [2]): 0.73 (0.49-0.97)

COc1cc(C(=O)N2CCC(CCN3CCC(C(N)=O)(c4ccccc4)CC3)(c3ccc(Cl)c(Cl)c3)C2)cc(OC)c1OC (stereo not shown) [Example 3, 1-[2-[3-(3,4-dichloro-phenyl)-1-(3,4,5-trimethoxy-benzoyl)-pyrrolidin-3-yl]-ethyl]-4-phenyl-piperidine-4-carboxylic acid amide]
antagonism of the receptor mediated NKA induced PI turnover (NK2 receptor; SKLKB82#3 cells, Figure 1b, result in words): dose related antagonism
DYSPNEA INCIDENCE ([1]; 5 mg/kg): 86% (6/7)
DYSPNEA ONSET ([1]; 5 mg/kg): 394 ± 32 s
DYSPNEA INCIDENCE ([1]; 10 mg/kg): 60% (6/10)
DYSPNEA ONSET ([1]; 10 mg/kg): 801 ± 104 s
